Data as given in patent US11248017B2, “Anti-inflammatory composition including novel kaempferol-based compound derived from post-fermented tea” (AMOREPACIFIC CORPORATION, priority 2017, dated 2022).
One block for each molecule: values may come before it.

Tests used:
PGE2 (Prostaglandin E2) = experiment: PGE2 production inhibition experiment (ELISA); type: cell-based, Human; settings: for PGE2: human fibroblasts, 500 μM H2O2 24 h, then test substance (33: 100 μg/ml) 48 h, culture medium
Description: (§1) Human fibroblasts (PromoCell, Germany) were seeded into 6-well culture plates at a concentration of 1×10^5 cells and incubated in 37° C., 5% CO2 incubator for 24 hours. After 500 μM of H2O2 was treated in a well and stimulated for 24 hours, the kaempferol3-O-[2-O″-(E)-p-coumaroyl][beta-D-glucopyranosyl-(1-3)-O-alpha-L-rhamnopyranosyl-(1→6)-O-beta-D-glucopyranoside](‘new material 33’) was treated at a concentration of 100 μg/ml each, and was reacted for 48 hours. After completion of the reaction, the culture medium was collected and subjected to ELISA analysis. At this time, α-bisabolol, which is a material frequently used as an anti-inflammation agent and an abirritant, was used as a control. PGE2 used Assay Design's kit and IL-6 and IL-8 used Endogen's kit, and the experiment was conducted according to the method specified in each company's manual. (‘33’ means new material 33) Inhibitory effect={1−(test sample−control)/(H2O2−control)}×100 <Equation 1>

IL-6 (Interleukin 6) = experiment: IL-6 production inhibition experiment (ELISA); type: cell-based, Human; settings: for IL-6: human fibroblasts, 500 μM H2O2 24 h, then test substance (33: 100 μg/ml) 48 h, culture medium
Description: as §1

IL-8 (Interleukin 8) = experiment: IL-8 production inhibition experiment (ELISA); type: cell-based, Human; settings: for IL-8: human fibroblasts, 500 μM H2O2 24 h, then test substance (33: 100 μg/ml) 48 h, culture medium
Description: as §1

skin = experiment: Skin accumulation stimulation experiment, human repeated insult patch test (HRIPT); type: in vivo; design: key to skin reactivity (ICDRG criteria): −: negative (no response); ±: doubtful or slight erythema, etc.; +: weak reaction (which is accompanied with no phlyctenule), erythema, papule; ++: severe reaction (which is accompanied with phlyctenule), erythema, papule, phlyctenule; +++: strong reaction, bullae reaction; settings: for Average reactivity: 9 patches over 3 weeks, 15 subjects, less than 3 = stable composition
Description: Human repeated insult patch tests (HRIPT) were performed to confirm the skin accumulation stimulation of the kaempferol3-O-[2-O″-(E)-p-coumaroyl][beta-D-glucopyranosyl-(1→3)-O-alpha-L-rhamnopyranosyl-(1→6)-O-beta-D-glucopyranoside] and to calculate the concentration range available for the skin.
Specifically, 15 healthy adult subjects were randomly selected, and the test composition (the skin composition including an emulsifier, a stabilizer, purified water, etc. in addition to the compound) containing 0.5 wt %, 1 wt %, and 3 wt % of the compound was added dropwise by 20 μl per chamber (IQ chamber, Epitest Ltd, Finland). After 24 hours from patching the upper right part of the back of a subject, it was replaced with the new patch. A total of 9 patches were conducted, three times a week for total 3 weeks, in such manner, the skin reactions before and after patch were examined every time, and the skin reactions until 48 hours after removing the final patch were observed, and the average reactivity was observed.
The skin response was determined according to the criteria of the International Contact Dermatitis Research Group (ICDRG). ‘New material 33’ in the table above is kaempferol3-O-[2-O″-(E)-p-coumaroyl][beta-D-glucopyranosyl-(1→3)-O-alpha-L-rhamnopyranosyl-(1→6)-O-beta-D-glucopyranoside].

- Number of subjects with + reactivity (skin; 0.5 wt %, 1st patch): 0 person
- Number of subjects with ++ reactivity (skin; 0.5 wt %, 1st patch): 0 person
- Number of subjects with ± reactivity (skin; 0.5 wt %, 1st patch): 0 person
- Number of subjects with + reactivity (skin; 0.5 wt %, 2nd patch): 0 person
- Number of subjects with ++ reactivity (skin; 0.5 wt %, 2nd patch): 0 person
- Number of subjects with ± reactivity (skin; 0.5 wt %, 2nd patch): 0 person
- Number of subjects with + reactivity (skin; 0.5 wt %, 3rd patch): 0 person
- Number of subjects with ++ reactivity (skin; 0.5 wt %, 3rd patch): 0 person
- Number of subjects with ± reactivity (skin; 0.5 wt %, 3rd patch): 0 person
- Number of subjects with + reactivity (skin; 0.5 wt %, 4th patch): 0 person
- Number of subjects with ++ reactivity (skin; 0.5 wt %, 4th patch): 0 person
- Number of subjects with ± reactivity (skin; 0.5 wt %, 4th patch): 0 person
- Number of subjects with + reactivity (skin; 0.5 wt %, 5th patch): 0 person
- Number of subjects with ++ reactivity (skin; 0.5 wt %, 5th patch): 0 person
- Number of subjects with ± reactivity (skin; 0.5 wt %, 5th patch): 0 person
- Number of subjects with + reactivity (skin; 0.5 wt %, 6th patch): 0 person
- Number of subjects with ++ reactivity (skin; 0.5 wt %, 6th patch): 0 person
- Number of subjects with ± reactivity (skin; 0.5 wt %, 6th patch): 0 person
- Number of subjects with + reactivity (skin; 0.5 wt %, 7th patch): 0 person
- Number of subjects with ++ reactivity (skin; 0.5 wt %, 7th patch): 0 person
- Number of subjects with ± reactivity (skin; 0.5 wt %, 7th patch): 0 person
- Number of subjects with + reactivity (skin; 0.5 wt %, 8th patch): 0 person
- Number of subjects with ++ reactivity (skin; 0.5 wt %, 8th patch): 0 person
- Number of subjects with ± reactivity (skin; 0.5 wt %, 8th patch): 0 person
- Average reactivity (skin; 0.5 wt %): 0
- Number of subjects with + reactivity (skin; 0.5 wt %, 9th patch): 0 person
- Number of subjects with ++ reactivity (skin; 0.5 wt %, 9th patch): 0 person
- Number of subjects with ± reactivity (skin; 0.5 wt %, 9th patch): 0 person
- Number of subjects with + reactivity (skin; 1 wt %, 1st patch): 0 person
- Number of subjects with ++ reactivity (skin; 1 wt %, 1st patch): 0 person
- Number of subjects with ± reactivity (skin; 1 wt %, 1st patch): 0 person
- Number of subjects with + reactivity (skin; 1 wt %, 2nd patch): 0 person
- Number of subjects with ++ reactivity (skin; 1 wt %, 2nd patch): 0 person
- Number of subjects with ± reactivity (skin; 1 wt %, 2nd patch): 0 person
- Number of subjects with + reactivity (skin; 1 wt %, 3rd patch): 0 person
- Number of subjects with ++ reactivity (skin; 1 wt %, 3rd patch): 0 person
- Number of subjects with ± reactivity (skin; 1 wt %, 3rd patch): 0 person
- Number of subjects with + reactivity (skin; 1 wt %, 4th patch): 0 person
- Number of subjects with ++ reactivity (skin; 1 wt %, 4th patch): 0 person
- Number of subjects with ± reactivity (skin; 1 wt %, 4th patch): 0 person
- Number of subjects with + reactivity (skin; 1 wt %, 5th patch): 0 person
- Number of subjects with ++ reactivity (skin; 1 wt %, 5th patch): 0 person
- Number of subjects with ± reactivity (skin; 1 wt %, 5th patch): 0 person
- Number of subjects with + reactivity (skin; 1 wt %, 6th patch): 0 person
- Number of subjects with ++ reactivity (skin; 1 wt %, 6th patch): 0 person
- Number of subjects with ± reactivity (skin; 1 wt %, 6th patch): 0 person
- Number of subjects with + reactivity (skin; 1 wt %, 7th patch): 0 person
- Number of subjects with ++ reactivity (skin; 1 wt %, 7th patch): 0 person
- Number of subjects with ± reactivity (skin; 1 wt %, 7th patch): 0 person
- Number of subjects with + reactivity (skin; 1 wt %, 8th patch): 0 person
- Number of subjects with ++ reactivity (skin; 1 wt %, 8th patch): 0 person
- Number of subjects with ± reactivity (skin; 1 wt %, 8th patch): 0 person
- Average reactivity (skin; 1 wt %): 0
- Number of subjects with + reactivity (skin; 1 wt %, 9th patch): 0 person
- Number of subjects with ++ reactivity (skin; 1 wt %, 9th patch): 0 person
- Number of subjects with ± reactivity (skin; 1 wt %, 9th patch): 0 person
- Number of subjects with + reactivity (skin; 3 wt %, 1st patch): 0 person
- Number of subjects with ++ reactivity (skin; 3 wt %, 1st patch): 0 person
- Number of subjects with ± reactivity (skin; 3 wt %, 1st patch): 0 person
- Number of subjects with + reactivity (skin; 3 wt %, 2nd patch): 0 person
- Number of subjects with ++ reactivity (skin; 3 wt %, 2nd patch): 0 person
- Number of subjects with ± reactivity (skin; 3 wt %, 2nd patch): 0 person
- Number of subjects with + reactivity (skin; 3 wt %, 3rd patch): 0 person
- Number of subjects with ++ reactivity (skin; 3 wt %, 3rd patch): 0 person
- Number of subjects with ± reactivity (skin; 3 wt %, 3rd patch): 0 person
- Number of subjects with + reactivity (skin; 3 wt %, 4th patch): 0 person
- Number of subjects with ++ reactivity (skin; 3 wt %, 4th patch): 0 person
- Number of subjects with ± reactivity (skin; 3 wt %, 4th patch): 0 person
- Number of subjects with + reactivity (skin; 3 wt %, 5th patch): 0 person
- Number of subjects with ++ reactivity (skin; 3 wt %, 5th patch): 0 person
- Number of subjects with ± reactivity (skin; 3 wt %, 5th patch): 0 person
- Number of subjects with + reactivity (skin; 3 wt %, 6th patch): 0 person
- Number of subjects with ++ reactivity (skin; 3 wt %, 6th patch): 0 person
- Number of subjects with ± reactivity (skin; 3 wt %, 6th patch): 0 person
- Number of subjects with + reactivity (skin; 3 wt %, 7th patch): 0 person
- Number of subjects with ++ reactivity (skin; 3 wt %, 7th patch): 0 person
- Number of subjects with ± reactivity (skin; 3 wt %, 7th patch): 0 person
- Number of subjects with + reactivity (skin; 3 wt %, 8th patch): 0 person
- Number of subjects with ++ reactivity (skin; 3 wt %, 8th patch): 0 person
- Number of subjects with ± reactivity (skin; 3 wt %, 8th patch): 0 person
- Average reactivity (skin; 3 wt %): 0
- Number of subjects with + reactivity (skin; 3 wt %, 9th patch): 0 person
- Number of subjects with ++ reactivity (skin; 3 wt %, 9th patch): 0 person
- Number of subjects with ± reactivity (skin; 3 wt %, 9th patch): 0 person
- skin reactivity (ICDRG criteria) (skin; content range 0.5 to 3 wt %, all subjects): −
Molecule: C[C@@H]1O[C@@H](OC[C@H]2O[C@@H](Oc3c(-c4ccc(O)cc4)oc4cc(O)cc(O)c4c3=O)[C@H](OC(=O)/C=C/c3ccc(O)cc3)[C@@H](O)[C@@H]2O)[C@H](O)[C@H](O[C@@H]2O[C@H](CO)[C@@H](O)[C@H](O)[C@H]2O)[C@H]1O [new material 33, kaempferol3-O-[2-O″-(E)-p-coumaroyl][beta-D-glucopyranosyl-(1→3)-O-alpha-L-rhamnopyranosyl-(1→6)-O-beta-D-glucopyranoside]]
- inhibition at 100 µg/mL (PGE2 (Prostaglandin E2); Homo sapiens, 100 μg/ml, {1−(test sample−control)/(H2O2−control)}×100, control = a-bisabolol, read-out: Inhibitory Effect according to Equation 1, PGE2): 82.1%
- PGE2 (PGE2 (Prostaglandin E2)): 231 pg/mL
- effect on PGE2 increased by H2O2 (PGE2 (Prostaglandin E2); in words): effect of reducing
- inhibition at 100 µg/mL (IL-6 (Interleukin 6); Homo sapiens, 100 μg/ml, {1−(test sample−control)/(H2O2−control)}×100, control = a-bisabolol, read-out: Inhibitory Effect according to Equation 1, IL-6): 72.3%
- IL-6 (IL-6 (Interleukin 6)): 198 pg/mL
- effect on IL-6 increased by H2O2 (IL-6 (Interleukin 6); in words): effect of reducing
- inhibition at 100 µg/mL (IL-8 (Interleukin 8); Homo sapiens, 100 μg/ml, {1−(test sample−control)/(H2O2−control)}×100, control = a-bisabolol, read-out: Inhibitory Effect according to Equation 1, IL-8): 88.9%
- IL-8 (IL-8 (Interleukin 8)): 210 pg/mL
- effect on IL-8 increased by H2O2 (IL-8 (Interleukin 8); in words): effect of reducing
- cumulative irritation of the skin (skin; content range 0.5 to 3 wt %, in words): no cumulative irritation of the skin

Molecule: α-bisabolol [a-bisabolol, reference compound]
- PGE2 (PGE2 (Prostaglandin E2)): 205 pg/mL
- IL-6 (IL-6 (Interleukin 6)): 180 pg/mL
- IL-8 (IL-8 (Interleukin 8)): 200 pg/mL
